The record followed here is US3941842A, “P,P'-Disubstituted α-trichloromethylbenzylanilines” (priority 1972, dated 1976).

One may read the LD50 as the dose expected to kill half of the subjects tested.

Data set [1] has as its system Musca domestica Snaidm. Nature of the data set: Topical LD50 to adult female SNAIDM houseflies. The conditions noted are these: for LD50: Musca domestica, read-out: Topical LD50, Musca domestica Snaidm, Alone; for LD50 / Topical LD50, Musca domestica Snaidm, with pb: topical; for Topical LD50, Musca domestica Snaidm, with pb: SNAIDM strain, synergized with piperonyl butoxide; for SR, Musca domestica Snaidm: synergistic ratio: LD50 alone/LD50 synergized with piperonyl butoxide. As for the experimental part:
(§1) The compounds of the present invention were tested for insecticidal activity by standard methods, and compared with the insecticidal activities of DDT and symmetrical analogs of DDT, such methoxychlor. Toxicological methods for the determination of the topical LD50 values to adult female SNAIDM and RSP houseflies, Musca domestica L. and to Phormia regina, and LC50 values to Culex pipiens quinquefasciatus Say, and Anopheles albimanus Weid mosquitoes were described by Metcalf el al., 44 Bull. World Health Org. 363 (1971). The methods for evaluation of metabolism by mouse liver homogenate and by female RSP housefly and salt-marsh caterpillar larvae Estigmene acrea Drury, were described by Kapoor et al., 18 J. Agr. Food Chem. 1145 (1970). The techniques for model eocsystem evluation were described by Metcalf et al., 5 J. Environ. Sci. Tech. 709 (1971).
(§2) Since piperonyl butoxide serves to block the action of MFO, the synergized LD50 values express the intrinsic toxicity of the compounds. With the detoxifying action of MFO enzymes blocked, the intrinsic toxicity of the compounds can thus be measured.

Data set [2] deals with Phormia regina. In words: whole plant or invertebrate. Conditions: for LD50: Phormia regina, read-out: Topical LD50, Phormia regina, Alone; for LD50 / Topical LD50, Phormia regina, with pb: topical; for Topical LD50, Phormia regina, with pb: synergized with piperonyl butoxide. As to the method: as §1, with “363 (1971).” left out, “Food Chem. 1145 (1970).” left out, “Tech.” for “Tech. 709 (1971).”
as §2

Data set [3] has as its system Culex fatigans larvae. Nature of the data set: LC50 to Culex fatigans larvae. The format is in vivo, Culex pipiens quinquefasciatus Say. An excerpt: (§3) World Health Org. 363 (1971). […] Food Chem. 1145 (1970). […] Sci. Tech. 709 (1971). The results are detailed in Table II. ##SPC1##
The test system of data set [4] is Musca domestica Rsp. Nature of the data set: Topical LD50 to adult female RSP houseflies. The conditions noted are these: for LD50: Musca domestica, read-out: Topical LD50, Musca domestica Rsp, Alone; for LD50 / Topical LD50, Musca domestica Rsp, with pb: topical; for Topical LD50, Musca domestica Rsp, with pb: RSP strain, synergized with piperonyl butoxide; for SR, Musca domestica Rsp: synergistic ratio: LD50 alone/LD50 synergized with piperonyl butoxide. As to the method: as §1, §2

Data set [5] relates to Musca domestica (SNAIDM and RSP strains), Phormia regina, Culex fatigans and Anopheles albimanus. Nature of the data set: Insecticidal activity over the test insects (Table II, summarised in words). Type of data set: in vivo. The conditions noted are these: for insecticidal effectiveness / toxicity (in words): overall, test insects of Table II. As for the experimental part:
as §1, §2

Data set [6] has as its system Anopheles albimanus larvae. In words: LC50 to Anopheles albimanus larvae. The format is in vivo, Anopheles albimanus Weid.
From the text: as §3

Regarding `COc1ccc(C(Nc2ccc(C)c(C)c2)C(Cl)(Cl)Cl)cc1` (stereo not drawn) [XXIII], in data set [1], the LD50 was found to be 85 mg/kg; the “Topical LD50, Musca domestica Snaidm, with pb” value came out at 6.5 μg per g; the “SR, Musca domestica Snaidm” value is on record as 13.0. Further, in data set [2], the LD50 turned out to be 77.5 mg/kg and the “Topical LD50, Phormia regina, with pb” value was determined as 15.5 μg per g. The “LC50 Culex fatigans larvae” value in data set [3] came to 0.30 ppm. Moreover, in data set [4], the LD50 came to 100 mg/kg; the “Topical LD50, Musca domestica Rsp, with pb” value is recorded as 28.0 μg per g; the “SR, Musca domestica Rsp” value was found to be 3.6. The “insecticidal effectiveness / toxicity (in words)” value in data set [5] is listed as “Toxicity was also substantially decreased”. The “LC50 Anopheles albimanus larvae” value in data set [6] is 0.18 ppm.
On to `CCOc1ccc(C(Nc2ccc(Cl)cc2)C(Cl)(Cl)Cl)cc1` (stereo not drawn) [VII, α-trichloromethyl1p-ethoxybenzyl-p-chloroaniline], for which, in data set [1], the LD50 was found to be 19 mg/kg; the “Topical LD50, Musca domestica Snaidm, with pb” value is recorded as 10.5 μg per g; the “SR, Musca domestica Snaidm” value was 1.8. In addition, in data set [2], the LD50 was determined as 24.5 mg/kg and the “Topical LD50, Phormia regina, with pb” value is reported as 20.0 μg per g. In addition, in data set [3], the “LC50 Culex fatigans larvae” value was 0.032 ppm. Moreover, in data set [4], the LD50 was determined as 31 mg/kg; the “Topical LD50, Musca domestica Rsp, with pb” value came out at 13.5 μg per g; the “SR, Musca domestica Rsp” value is reported as 2.3. Besides, the “insecticidal effectiveness / toxicity (in words)” value in data set [5] was “only slightly less active than compound XI”. For the same compound, the “LC50 Anopheles albimanus larvae” value in data set [6] is 0.060 ppm.
Regarding `CCOc1ccc(NC(c2ccccc2OCC)C(Cl)(Cl)Cl)cc1` (stereo not drawn) [XX], in data set [1], the LD50 is more than 500 mg/kg and the “Topical LD50, Musca domestica Snaidm, with pb” value was 500 μg per g. Moreover, in data set [2], the LD50 was more than 250 mg/kg and the “Topical LD50, Phormia regina, with pb” value is given as more than 250 μg per g. Also, the “LC50 Culex fatigans larvae” value in data set [3] is recorded as more than 1.0 ppm. Further, in data set [4], the 50% lethal dose (LD50) is more than 500 mg/kg and the “Topical LD50, Musca domestica Rsp, with pb” value was more than 500 μg per g. In data set [5], the “insecticidal effectiveness / toxicity (in words)” value is “Toxicity was greatly decreased”. Further, the “LC50 Anopheles albimanus larvae” value in data set [6] was more than 1.0 ppm.
For the compound `CCOc1ccc(NC(c2ccccc2)C(Cl)(Cl)Cl)cc1` (stereo not drawn) [XIX], in data set [1], the LD50 is more than 500 mg/kg; the “Topical LD50, Musca domestica Snaidm, with pb” value was 31.0 μg per g; the “SR, Musca domestica Snaidm” value was more than 16. In data set [2], the LD50 was more than 250 mg/kg and the “Topical LD50, Phormia regina, with pb” value is more than 250 μg per g. The “LC50 Culex fatigans larvae” value in data set [3] is more than 1.0 ppm. Further, in data set [4], the LD50 was more than 500 mg/kg; the “Topical LD50, Musca domestica Rsp, with pb” value came to 120 μg per g; the “SR, Musca domestica Rsp” value is given as more than 4. Moreover, in data set [5], the “insecticidal effectiveness / toxicity (in words)” value is recorded as “Toxicity was greatly decreased”. Moreover, the “LC50 Anopheles albimanus larvae” value in data set [6] was 0.61 ppm.
For the compound `CCOc1ccc(C(Nc2ccccc2OCC)C(Cl)(Cl)Cl)cc1` (stereo not drawn) [XXI], in data set [1], the LD50 is more than 500 mg/kg; the “Topical LD50, Musca domestica Snaidm, with pb” value was found to be 110 μg per g; the “SR, Musca domestica Snaidm” value was more than 5. Besides, in data set [2], the LD50 is more than 250 mg/kg and the “Topical LD50, Phormia regina, with pb” value is listed as more than 250 μg per g. Further, the “LC50 Culex fatigans larvae” value in data set [3] was more than 1.0 ppm. In addition, in data set [4], the LD50 was more than 500 mg/kg; the “Topical LD50, Musca domestica Rsp, with pb” value came to 140 μg per g; the “SR, Musca domestica Rsp” value is listed as more than 3.5. In data set [5], the “insecticidal effectiveness / toxicity (in words)” value is reported as “Toxicity was greatly decreased”. The “LC50 Anopheles albimanus larvae” value in data set [6] is on record as more than 1.0 ppm.
Consider `CCCCOc1ccc(C(Nc2ccc(OC)cc2)C(Cl)(Cl)Cl)cc1` (stereo not drawn) [XVIII], for which, in data set [1], the LD50 is 370 mg/kg; the “Topical LD50, Musca domestica Snaidm, with pb” value is on record as 12.5 μg per g; the “SR, Musca domestica Snaidm” value came out at 30. Also, in data set [2], the LD50 was more than 250 mg/kg and the “Topical LD50, Phormia regina, with pb” value was determined as 67.5 μg per g. In addition, the “LC50 Culex fatigans larvae” value in data set [3] is 0.60 ppm. Also, in data set [4], the LD50 was found to be 230 mg/kg; the “Topical LD50, Musca domestica Rsp, with pb” value turned out to be 32.0 μg per g; the “SR, Musca domestica Rsp” value amounted to 7.2. Also, the “insecticidal effectiveness / toxicity (in words)” value in data set [5] is listed as “Toxicity was also substantially decreased”. The “LC50 Anopheles albimanus larvae” value in data set [6] is on record as 0.77 ppm.
Take `CN(C)c1ccc(C(Nc2ccc([N+](=O)[O-])cc2)C(Cl)(Cl)Cl)cc1` (stereo not drawn) [XXVI]: in data set [1], the LD50 was more than 500 mg/kg; the “Topical LD50, Musca domestica Snaidm, with pb” value stood at 120 μg per g; the “SR, Musca domestica Snaidm” value is more than 4. Further, in data set [2], the LD50 was more than 250 mg/kg and the “Topical LD50, Phormia regina, with pb” value was more than 250 μg per g. In data set [3], the “LC50 Culex fatigans larvae” value was found to be 0.38 ppm. Further, in data set [4], the LD50 was more than 500 mg/kg and the “Topical LD50, Musca domestica Rsp, with pb” value was found to be 500 μg per g. In data set [5], the “insecticidal effectiveness / toxicity (in words)” value is “Toxicity was also substantially decreased”. In addition, the “LC50 Anopheles albimanus larvae” value in data set [6] is recorded as more than 1.0 ppm.
Consider `COc1ccc(NC(c2ccc(N(C)C)cc2)C(Cl)(Cl)Cl)cc1` (stereo not drawn) [XXV], for which, in data set [1], the LD50 is 310 mg/kg; the “Topical LD50, Musca domestica Snaidm, with pb” value turned out to be 16.0 μg per g; the “SR, Musca domestica Snaidm” value was 19.4. In data set [2], the median lethal dose (LD50) was more than 250 mg/kg and the “Topical LD50, Phormia regina, with pb” value was determined as 85.0 μg per g. Also, in data set [3], the “LC50 Culex fatigans larvae” value was 0.70 ppm. Moreover, in data set [4], the LD50 is more than 500 mg/kg; the “Topical LD50, Musca domestica Rsp, with pb” value amounted to 13.5 μg per g; the “SR, Musca domestica Rsp” value was more than 37. In addition, the “insecticidal effectiveness / toxicity (in words)” value in data set [5] is “Toxicity was also substantially decreased”. The “LC50 Anopheles albimanus larvae” value in data set [6] was 1.0 ppm.
`COc1ccc(C(Nc2ccc(C)cc2C)C(Cl)(Cl)Cl)cc1` (stereo not drawn) [XXIV]: in data set [1], the LD50 is 95 mg/kg; the “Topical LD50, Musca domestica Snaidm, with pb” value came to 14.0 μg per g; the “SR, Musca domestica Snaidm” value was determined as 6.8. Moreover, in data set [2], the median lethal dose (LD50) worked out at 97.5 mg/kg and the “Topical LD50, Phormia regina, with pb” value is listed as 25.0 μg per g. For the same compound, in data set [3], the “LC50 Culex fatigans larvae” value stood at 0.28 ppm. In addition, in data set [4], the LD50 amounted to 140 mg/kg; the “Topical LD50, Musca domestica Rsp, with pb” value turned out to be 29.0 μg per g; the “SR, Musca domestica Rsp” value was 4.8. For the same compound, the “insecticidal effectiveness / toxicity (in words)” value in data set [5] is listed as “Toxicity was also substantially decreased”. Also, the “LC50 Anopheles albimanus larvae” value in data set [6] is 0.080 ppm.
As to `COc1ccc(NC(c2ccc(C)cc2)C(Cl)(Cl)Cl)cc1` (stereo not drawn) [Compound X], in data set [1], the LD50 is 48 mg/kg; the “Topical LD50, Musca domestica Snaidm, with pb” value is reported as 8.5 μg per g; the “SR, Musca domestica Snaidm” value amounted to 5.6. Besides, in data set [2], the LD50 was 135 mg/kg and the “Topical LD50, Phormia regina, with pb” value is reported as 14.0 μg per g. Besides, the “SR, Phormia regina” value in data set [2] (synergistic ratio: LD50 alone/LD50 synergized with piperonyl butoxide) was determined as 9.6. Moreover, in data set [3], the “LC50 Culex fatigans larvae” value was 0.54 ppm. In addition, in data set [4], the LD50 is 65 mg/kg; the “Topical LD50, Musca domestica Rsp, with pb” value is reported as 7.5 μg per g; the “SR, Musca domestica Rsp” value came out at 8.7. For the same compound, in data set [5] (synergism by piperonyl butoxide), the “SR values (in words)” value is reported as “higher SR values”. Further, in data set [6], the “LC50 Anopheles albimanus larvae” value came to 0.48 ppm.
Consider `CCOc1ccc(C(Nc2ccccc2OCC)C(Cl)(Cl)Cl)c(OCC)c1` (stereo not drawn) [XXII], for which, in data set [1], the LD50 is more than 500 mg/kg and the “Topical LD50, Musca domestica Snaidm, with pb” value is given as 500 μg per g. Further, in data set [2], the LD50 was more than 250 mg/kg and the “Topical LD50, Phormia regina, with pb” value is listed as more than 250 μg per g. For the same compound, the “LC50 Culex fatigans larvae” value in data set [3] was more than 1.0 ppm. For the same compound, in data set [4], the LD50 is more than 500 mg/kg and the “Topical LD50, Musca domestica Rsp, with pb” value stood at 500 μg per g. In addition, the “insecticidal effectiveness / toxicity (in words)” value in data set [5] is on record as “Toxicity was also substantially decreased”. Besides, the “LC50 Anopheles albimanus larvae” value in data set [6] is recorded as more than 1.0 ppm.
